Measured values from ChEMBL document CHEMBL1201862, “PubChem BioAssay data set” (2004).
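Dose response: 5 concentrations. Exposure: 48 h. Format: 96-well plates. Endpoint: linear interpolation; highest concentration if not reached. GI50 is the concentration that inhibits growth by half.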 Activity calls are given as the source filed them. No stated cut-off is given here; in the data, active = GI50 up to about 1.1 µM and inactive = higher.

Tests used:
Test in all cases: DTP human tumour cell line panel, 48 h
[1] = tested on: 786-0
[2] = tested on: A498
[3] = tested on: A549
[4] = tested on: ACHN
[5] = tested on: CAKI-1
[6] = tested on: CCRF-CEM
[7] = tested on: COLO 205
[8] = tested on: DU-145
[9] = tested on: EKVX
[10] = tested on: HCC 2998
[11] = tested on: HCT-116
[12] = tested on: HCT-15
[13] = tested on: HL-60
[14] = tested on: HOP-62
[15] = tested on: HOP-92
[16] = tested on: HT-29
[17] = tested on: Hs-578T
[18] = tested on: IGROV-1
[19] = tested on: K562
[20] = tested on: KM12
[21] = tested on: LOX IMVI
[22] = tested on: M14
[23] = tested on: MCF7
[24] = tested on: MDA-MB-231
[25] = tested on: MDA-MB-435
[26] = tested on: MDA-N
[27] = tested on: MOLT-4
[28] = tested on: Malme-3M
[29] = tested on: NCI-H226
[30] = tested on: NCI-H23
[31] = tested on: NCI-H460
[32] = tested on: NCI-H522
[33] = tested on: NCI/ADR-RES
[34] = tested on: OVCAR-3
[35] = tested on: OVCAR-4
[36] = tested on: OVCAR-5
[37] = tested on: OVCAR-8
[38] = tested on: PC-3
[39] = tested on: RPMI-8226
[40] = tested on: RXF 393
[41] = tested on: SF-268
[42] = tested on: SF-539
[43] = tested on: SK-MEL-28
[44] = tested on: SK-MEL-2
[45] = tested on: SK-MEL-5
[46] = tested on: SK-OV-3
[47] = tested on: SN12C
[48] = tested on: SNB-19
[49] = tested on: SNB-75
[50] = tested on: SR
[51] = tested on: SW-620
[52] = tested on: T47D
[53] = tested on: TK-10
[54] = tested on: U-251
[55] = tested on: UACC-257
[56] = tested on: UO-31

In the case of `C=CCNC(=O)NNC(O)(C(=O)OCC)C(F)(F)F` (stereo unspecified), the GI50 [1] is reported as > 100 µM (inactive), the GI50 [2] is reported as > 100 µM (inactive) and the GI50 [3] is reported as > 100 µM (inactive). For the same compound, the GI50 [4] was > 100 µM (inactive), the GI50 [5] was > 100 µM (inactive) and the GI50 [6] was > 100 µM (inactive). The GI50 [7] was > 100 µM (inactive), the GI50 [8] was > 100 µM (inactive) and the GI50 [9] was > 100 µM (inactive). The GI50 [10] was > 100 µM (inactive), the GI50 [11] was > 100 µM (inactive) and the GI50 [12] was > 100 µM. The GI50 [13] was > 100 µM (inactive), the GI50 [14] was > 100 µM (inactive) and the GI50 [15] was > 100 µM (inactive). The GI50 [16] was > 100 µM (inactive), the GI50 [17] was > 100 µM (inactive) and the GI50 [18] was > 100 µM (inactive). For the same compound, the GI50 [19] was > 100 µM (inactive), the GI50 [20] was > 100 µM (inactive) and the GI50 [21] was > 100 µM (inactive). The GI50 [22] was > 100 µM (inactive), the GI50 [23] was > 100 µM (inactive) and the GI50 [24] was > 100 µM (inactive). The GI50 [25] was > 100 µM (inactive), the GI50 [26] was > 100 µM (inactive) and the GI50 [27] was > 100 µM (inactive). For the same compound, the GI50 [28] was > 100 µM (inactive), the GI50 [29] was > 100 µM (inactive) and the GI50 [30] was > 100 µM (inactive). For the same compound, the GI50 [31] was > 100 µM (inactive), the GI50 [32] was > 100 µM (inactive) and the GI50 [33] was > 100 µM (inactive). The GI50 [34] was > 100 µM (inactive), the GI50 [35] was > 100 µM (inactive) and the GI50 [36] was > 100 µM (inactive). The GI50 [37] was > 100 µM (inactive), the GI50 [38] was > 100 µM (inactive) and the GI50 [39] was > 100 µM (inactive). For the same compound, the GI50 [40] was > 100 µM (inactive), the GI50 [41] was > 100 µM (inactive) and the GI50 [42] was > 100 µM (inactive). The GI50 [43] was > 100 µM (inactive), the GI50 [44] was > 100 µM (inactive) and the GI50 [45] was > 100 µM (inactive). For the same compound, the GI50 [46] was > 100 µM (inactive), the GI50 [47] was > 100 µM (inactive) and the GI50 [48] was > 100 µM (inactive). For the same compound, the GI50 [49] was > 100 µM (inactive), the GI50 [50] was > 100 µM (inactive) and the GI50 [51] was > 100 µM (inactive). For the same compound, the GI50 [52] was > 100 µM (inactive), the GI50 [53] was > 100 µM (inactive) and the GI50 [54] was > 100 µM (inactive). For the same compound, the GI50 [55] was > 100 µM (inactive) and the GI50 [56] was > 100 µM (inactive).
